Experimental data published in US20230365546A1, “5-SUBSTITUTED INDOLE 3-AMIDE DERIVATIVES, PREPARATION METHOD AND USE THEREOF” (ORIGIANT PHARMACEUTICAL CO., LTD, priority 2020, published 2023).

How the values were obtained:
Assay in all cases: Kinase Profiler 10 μM panel
Itk(h) = Itk(h) (Homo sapiens (Human), UniProt Q08881)
Protocol: (§1) In vitro kinase assays were conducted using Kinase Profiler services provided by Eurofins. The experimental method was as follows: the small molecule compound to be tested (0.001-10 μM), the protein kinase to be tested were incubated with a buffer containing substrate, 10 mM magnesium acetate, and [γ-^33P-ATP], the reaction was started by adding Mg\TPmix, after incubation for a period of time at room temperature, a 3% phosphate solution was added to the buffer to stop the reaction. Subsequently, 10 μL of the reaction mixture was quantitatively pipetted onto P30 filter paper, which was washed three times with 75 mM phosphate solution and then once with methanol. The P30 filter paper was air-dried and scintillation fluid was added for scintillation counting.

TBK1(h) = TBK1(h) (Homo sapiens (Human), UniProt Q9UHD2)
PTK5(h) = PTK5(h) (Homo sapiens (Human), UniProt P42685)
Protocol: as §1

PKG1α(h) = PKG1α(h) (Homo sapiens (Human), UniProt Q13976)
Protocol: as §1

PASK(h) = PASK(h) (Homo sapiens (Human), UniProt Q96RG2)
Protocol: as §1

Ret(V804M)(h) = Ret(V804M)(h) (Homo sapiens (Human), UniProt P07949, V804M)
Protocol: as §1

PKR(h) = PKR(h) (Homo sapiens (Human), UniProt P19525)
Protocol: as §1

MRCKγ(h) = MRCKγ(h) (Homo sapiens (Human), UniProt Q6DT37)
Protocol: as §1

cKit(D816H)(h) = cKit(D816H)(h) (Homo sapiens (Human), UniProt P10721, D816H)
Protocol: as §1

TrkB(h) = TrkB(h) (Homo sapiens (Human), UniProt Q16620)
Protocol: as §1

Wee1(h) = Wee1(h) (Homo sapiens (Human), UniProt P30291)
Protocol: as §1

CDK6/cyclinD3(h) = CDK6/cyclinD3(h) (Homo sapiens (Human), UniProt Q00534)
Protocol: as §1

CLK1(h) = CLK1(h) (Homo sapiens (Human), UniProt P49759)
Protocol: as §1

BIKe(h) = BIKe(h) (Homo sapiens (Human), UniProt Q9NSY1)
Protocol: as §1

ULK2(h) = ULK2(h) (Homo sapiens (Human), UniProt Q8IYT8)
Protocol: as §1

A-Raf(h) = A-Raf(h) (Homo sapiens (Human), UniProt P10398)
Protocol: as §1

Aurora-C(h) = Aurora-C(h) (Homo sapiens (Human), UniProt Q9UQB9)
Protocol: as §1

LIMK2(h) = LIMK2(h) (Homo sapiens (Human), UniProt P53671)
Protocol: as §1

PEK(h) = PEK(h) (Homo sapiens (Human), UniProt Q9NZJ5)
Protocol: as §1

CLK2(h) = CLK2(h) (Homo sapiens (Human), UniProt P49760)
Protocol: as §1

PRK2(h) = PRK2(h) (Homo sapiens (Human), UniProt Q16513)
Protocol: as §1

PIP5K1a(h) = PIP5K1a(h) (Homo sapiens (Human), UniProt Q99755)
Protocol: as §1

Flt4(h) = Flt4(h) (Homo sapiens (Human), UniProt P35916)
Protocol: as §1

IKKß(h) = IKKß(h) (Homo sapiens (Human), UniProt O14920)
Protocol: as §1

Pyk2(h) = Pyk2(h) (Homo sapiens (Human), UniProt Q14289)
Protocol: as §1

PAK1(h) = PAK1(h) (Homo sapiens (Human), UniProt Q13153)
Protocol: as §1

EGFR(L861Q)(h) = EGFR(L861Q)(h) (Homo sapiens (Human), UniProt P00533, L861Q)
Protocol: as §1

Pim-3(h) = Pim-3(h) (Homo sapiens (Human), UniProt Q86V86)
Protocol: as §1

MRCKβ(h) = MRCKβ(h) (Homo sapiens (Human), UniProt Q9Y5S2)
Protocol: as §1

Abl(Y253F)(h) = Abl(Y253F)(h) (Homo sapiens (Human), UniProt P00519, Y253F)
Protocol: as §1

MAPK2(m) = MAPK2(m) (Mus musculus (Mouse), UniProt P63085)
Protocol: as §1

[1] = target: PI3 Kinase (p110a/p85a)(m) (Mus musculus (Mouse), UniProt P42337)
Protocol: as §1

DYRK2(h) = DYRK2(h) (Homo sapiens (Human), UniProt Q92630)
Protocol: as §1

PKCζ(h) = PKCζ(h) (Homo sapiens (Human), UniProt Q05513)
Protocol: as §1

Chain of Ret(V804M)(h) (P07949 29-1114 V804M): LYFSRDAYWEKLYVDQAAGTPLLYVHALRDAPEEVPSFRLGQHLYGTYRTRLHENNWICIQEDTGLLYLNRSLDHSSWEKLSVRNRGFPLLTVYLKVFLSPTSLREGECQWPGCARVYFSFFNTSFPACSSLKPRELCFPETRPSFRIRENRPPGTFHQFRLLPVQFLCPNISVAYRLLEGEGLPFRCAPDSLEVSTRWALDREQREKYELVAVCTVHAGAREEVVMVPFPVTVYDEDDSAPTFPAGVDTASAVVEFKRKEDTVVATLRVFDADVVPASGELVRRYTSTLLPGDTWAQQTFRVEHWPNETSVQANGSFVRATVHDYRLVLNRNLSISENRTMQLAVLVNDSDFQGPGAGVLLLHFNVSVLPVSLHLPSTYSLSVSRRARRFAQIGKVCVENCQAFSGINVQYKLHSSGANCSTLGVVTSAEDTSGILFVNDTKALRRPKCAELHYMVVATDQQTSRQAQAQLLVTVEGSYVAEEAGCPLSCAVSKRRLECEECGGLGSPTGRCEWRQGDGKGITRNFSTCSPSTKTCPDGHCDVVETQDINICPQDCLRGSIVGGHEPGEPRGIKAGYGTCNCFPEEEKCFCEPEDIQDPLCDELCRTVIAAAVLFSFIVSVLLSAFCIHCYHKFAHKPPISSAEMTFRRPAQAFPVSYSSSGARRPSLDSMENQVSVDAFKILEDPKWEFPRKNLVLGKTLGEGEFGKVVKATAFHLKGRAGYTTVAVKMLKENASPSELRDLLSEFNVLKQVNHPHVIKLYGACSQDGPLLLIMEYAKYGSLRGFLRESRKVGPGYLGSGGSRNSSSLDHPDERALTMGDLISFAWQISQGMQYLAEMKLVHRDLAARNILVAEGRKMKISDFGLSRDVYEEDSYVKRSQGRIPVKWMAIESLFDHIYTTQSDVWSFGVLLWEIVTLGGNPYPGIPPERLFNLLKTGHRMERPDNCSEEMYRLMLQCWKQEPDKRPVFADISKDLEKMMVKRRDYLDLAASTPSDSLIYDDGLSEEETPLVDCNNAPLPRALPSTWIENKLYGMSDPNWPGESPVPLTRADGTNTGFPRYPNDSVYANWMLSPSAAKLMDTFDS
Chain of PI3 Kinase (p110a/p85a)(m) (P42337 whole entry): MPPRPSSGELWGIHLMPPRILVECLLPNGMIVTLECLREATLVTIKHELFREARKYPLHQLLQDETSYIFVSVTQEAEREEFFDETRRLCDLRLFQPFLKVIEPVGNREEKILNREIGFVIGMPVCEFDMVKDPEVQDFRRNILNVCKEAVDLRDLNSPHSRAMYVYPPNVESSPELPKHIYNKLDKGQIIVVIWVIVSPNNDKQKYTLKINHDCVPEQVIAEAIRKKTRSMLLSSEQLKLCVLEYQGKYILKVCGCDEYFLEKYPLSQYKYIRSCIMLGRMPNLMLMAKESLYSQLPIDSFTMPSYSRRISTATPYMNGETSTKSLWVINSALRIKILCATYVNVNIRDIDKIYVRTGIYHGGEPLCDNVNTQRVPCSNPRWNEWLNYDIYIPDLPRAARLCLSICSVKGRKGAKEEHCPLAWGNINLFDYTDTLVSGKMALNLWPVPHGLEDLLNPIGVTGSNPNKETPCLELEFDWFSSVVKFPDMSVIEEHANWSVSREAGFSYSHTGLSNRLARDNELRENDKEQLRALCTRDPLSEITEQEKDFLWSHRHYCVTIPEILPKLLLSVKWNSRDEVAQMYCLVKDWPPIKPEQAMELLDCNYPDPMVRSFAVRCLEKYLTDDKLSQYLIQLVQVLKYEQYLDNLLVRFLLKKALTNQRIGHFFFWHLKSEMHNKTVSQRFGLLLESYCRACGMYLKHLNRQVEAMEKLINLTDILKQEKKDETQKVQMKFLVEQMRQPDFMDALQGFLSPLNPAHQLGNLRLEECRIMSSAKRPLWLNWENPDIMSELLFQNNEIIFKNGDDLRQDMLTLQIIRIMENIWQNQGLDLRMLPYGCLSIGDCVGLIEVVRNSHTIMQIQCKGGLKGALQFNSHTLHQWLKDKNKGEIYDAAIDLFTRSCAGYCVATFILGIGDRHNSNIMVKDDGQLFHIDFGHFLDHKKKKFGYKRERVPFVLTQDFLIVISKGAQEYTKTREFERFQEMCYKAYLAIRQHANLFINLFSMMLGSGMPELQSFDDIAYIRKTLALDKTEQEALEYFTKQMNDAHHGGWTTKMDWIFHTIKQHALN
Chain of PI3 Kinase (p110a/p85a)(m) (P26450 whole entry partner): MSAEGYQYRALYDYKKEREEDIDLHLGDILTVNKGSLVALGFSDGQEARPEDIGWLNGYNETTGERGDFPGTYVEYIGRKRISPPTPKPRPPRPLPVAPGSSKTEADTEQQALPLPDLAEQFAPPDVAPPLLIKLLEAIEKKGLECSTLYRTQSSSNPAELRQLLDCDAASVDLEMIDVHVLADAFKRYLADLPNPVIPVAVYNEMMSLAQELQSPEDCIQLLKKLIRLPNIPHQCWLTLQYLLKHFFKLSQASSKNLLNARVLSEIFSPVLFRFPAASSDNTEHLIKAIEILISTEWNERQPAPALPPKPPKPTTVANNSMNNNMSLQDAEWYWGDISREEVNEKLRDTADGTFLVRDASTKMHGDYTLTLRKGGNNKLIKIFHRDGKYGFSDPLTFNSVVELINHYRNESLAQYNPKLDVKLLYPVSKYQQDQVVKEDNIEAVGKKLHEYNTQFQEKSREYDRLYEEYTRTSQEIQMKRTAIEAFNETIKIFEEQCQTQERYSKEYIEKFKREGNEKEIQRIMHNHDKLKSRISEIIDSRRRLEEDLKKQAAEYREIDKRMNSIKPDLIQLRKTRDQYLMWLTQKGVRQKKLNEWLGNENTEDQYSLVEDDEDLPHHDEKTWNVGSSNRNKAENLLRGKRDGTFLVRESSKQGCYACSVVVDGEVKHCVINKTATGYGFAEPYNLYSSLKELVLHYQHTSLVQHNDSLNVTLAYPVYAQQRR
Chain of PASK(h) (Q96RG2 whole entry): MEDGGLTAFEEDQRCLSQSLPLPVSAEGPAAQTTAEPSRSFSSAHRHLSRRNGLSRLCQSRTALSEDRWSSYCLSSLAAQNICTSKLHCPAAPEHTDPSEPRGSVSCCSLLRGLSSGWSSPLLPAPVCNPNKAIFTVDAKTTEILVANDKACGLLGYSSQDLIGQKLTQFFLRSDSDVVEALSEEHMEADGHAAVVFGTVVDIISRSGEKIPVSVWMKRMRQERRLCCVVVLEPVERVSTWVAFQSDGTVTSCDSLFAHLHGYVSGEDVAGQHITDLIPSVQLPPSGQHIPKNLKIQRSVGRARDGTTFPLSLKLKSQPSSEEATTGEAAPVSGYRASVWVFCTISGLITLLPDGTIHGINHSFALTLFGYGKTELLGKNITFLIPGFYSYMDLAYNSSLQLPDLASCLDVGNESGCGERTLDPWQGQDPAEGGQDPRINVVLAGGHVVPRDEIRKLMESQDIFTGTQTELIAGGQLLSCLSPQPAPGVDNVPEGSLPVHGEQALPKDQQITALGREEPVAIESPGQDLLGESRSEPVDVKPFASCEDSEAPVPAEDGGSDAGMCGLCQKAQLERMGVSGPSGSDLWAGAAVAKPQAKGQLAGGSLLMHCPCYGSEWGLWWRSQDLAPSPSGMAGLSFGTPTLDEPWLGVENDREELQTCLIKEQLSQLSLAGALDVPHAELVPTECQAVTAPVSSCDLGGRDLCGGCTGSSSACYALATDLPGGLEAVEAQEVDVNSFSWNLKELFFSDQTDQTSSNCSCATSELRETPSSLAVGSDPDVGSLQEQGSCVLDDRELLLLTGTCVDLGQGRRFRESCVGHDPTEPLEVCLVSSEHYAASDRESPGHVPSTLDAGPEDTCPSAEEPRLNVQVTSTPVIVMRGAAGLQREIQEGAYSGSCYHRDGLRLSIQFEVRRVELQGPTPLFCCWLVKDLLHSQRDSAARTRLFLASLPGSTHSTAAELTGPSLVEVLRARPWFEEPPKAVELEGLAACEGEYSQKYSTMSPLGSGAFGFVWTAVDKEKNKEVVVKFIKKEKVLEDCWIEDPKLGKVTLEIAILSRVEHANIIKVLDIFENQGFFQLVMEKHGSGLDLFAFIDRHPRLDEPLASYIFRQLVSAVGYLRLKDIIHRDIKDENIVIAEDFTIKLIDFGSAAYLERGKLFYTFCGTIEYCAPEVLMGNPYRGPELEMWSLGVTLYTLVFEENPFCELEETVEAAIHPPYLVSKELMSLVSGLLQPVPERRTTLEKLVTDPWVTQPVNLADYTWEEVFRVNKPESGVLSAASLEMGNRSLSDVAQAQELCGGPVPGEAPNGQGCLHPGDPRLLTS
Chain of TrkB(h) (Q16620 32-822): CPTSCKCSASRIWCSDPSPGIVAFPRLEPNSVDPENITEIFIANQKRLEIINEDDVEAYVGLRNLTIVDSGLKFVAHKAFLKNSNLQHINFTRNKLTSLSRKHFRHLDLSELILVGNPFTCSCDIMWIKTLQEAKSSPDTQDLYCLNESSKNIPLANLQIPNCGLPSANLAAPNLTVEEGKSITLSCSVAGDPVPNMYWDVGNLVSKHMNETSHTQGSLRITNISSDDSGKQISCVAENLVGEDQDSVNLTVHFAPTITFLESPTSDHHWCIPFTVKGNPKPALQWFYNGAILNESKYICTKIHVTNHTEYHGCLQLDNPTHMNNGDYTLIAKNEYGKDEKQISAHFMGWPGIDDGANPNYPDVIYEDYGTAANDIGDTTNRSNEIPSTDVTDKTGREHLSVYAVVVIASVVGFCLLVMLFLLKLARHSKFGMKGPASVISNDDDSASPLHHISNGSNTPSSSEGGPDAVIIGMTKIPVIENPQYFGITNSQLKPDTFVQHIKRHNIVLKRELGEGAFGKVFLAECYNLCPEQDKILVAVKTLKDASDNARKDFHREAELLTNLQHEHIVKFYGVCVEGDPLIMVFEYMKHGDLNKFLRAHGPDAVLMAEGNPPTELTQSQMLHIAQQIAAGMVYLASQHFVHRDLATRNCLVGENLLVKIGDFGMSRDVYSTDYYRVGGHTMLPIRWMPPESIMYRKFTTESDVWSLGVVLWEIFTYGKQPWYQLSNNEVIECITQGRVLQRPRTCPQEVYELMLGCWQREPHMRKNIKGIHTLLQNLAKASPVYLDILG

## C[C@H](NC(=O)c1c[nH]c2ccc(-c3ccc4nc(NC(=O)C5CC5)sc4c3)cc12)c1cccc(F)c1 [Compound 34, (S)-5-(2-(cyclopropanecarboxamido)benzo[d]thiazol-6-yl)-N-(1-(3-fluorophenyl)ethyl)-1H-indole-3-carboxamide]
Itk(h)
  Inhibition ratio: 99%
TBK1(h)
  Inhibition ratio: 53%
PTK5(h)
  Inhibition ratio: 51%
PKG1α(h)
  Inhibition ratio: −12%
PASK(h)
  Inhibition ratio: −25%
Ret(V804M)(h)
  Inhibition ratio: 98%
PKR(h)
  Inhibition ratio: 11%
MRCKγ(h)
  Inhibition ratio: −1%
cKit(D816H)(h)
  Inhibition ratio: 44%
TrkB(h)
  Inhibition ratio: 100%
Wee1(h)
  Inhibition ratio: −1%
CDK6/cyclinD3(h)
  Inhibition ratio: 6%
CLK1(h)
  Inhibition ratio: 80%
BIKe(h)
  Inhibition ratio: 8%
ULK2(h)
  Inhibition ratio: 13%
A-Raf(h)
  Inhibition ratio: −1%
Aurora-C(h)
  Inhibition ratio: 26%
LIMK2(h)
  Inhibition ratio: 44%
PEK(h)
  Inhibition ratio: 1%
CLK2(h)
  Inhibition ratio: 77%
PRK2(h)
  Inhibition ratio: 0%
PIP5K1a(h)
  Inhibition ratio: 21%
Flt4(h)
  Inhibition ratio: 93%
IKKß(h); IKKß(h)
  Inhibition ratio: 12%
Pyk2(h)
  Inhibition ratio: 45%
PAK1(h)
  Inhibition ratio: 4%
EGFR(L861Q)(h)
  Inhibition ratio: 49%
Pim-3(h)
  Inhibition ratio: 3%
MRCKβ(h)
  Inhibition ratio: −5%
Abl(Y253F)(h)
  Inhibition ratio: 95%
MAPK2(m)
  Inhibition ratio: 12%
[1]
  Inhibition ratio: 43%
DYRK2(h)
  Inhibition ratio: 5%
PKCζ(h)
  Inhibition ratio: 10%

## C[C@H](NC(=O)c1cn(C)c2ccc(-c3ccn4nc(NC(=O)C5CC5)nc4c3)cc12)c1cccc(F)c1 [Compound 94, (S)-5-(2-(cyclopropanecarboxamido)-[1,2,4]triazolo[1,5-a]pyridin-7-yl)-N-(1-(3-fluorophenyl)ethyl)-1-methyl-1H-indole-3-carboxamide]
Itk(h)
  Inhibition ratio/%: 92%
TBK1(h)
  Inhibition ratio/%: 13%
PTK5(h)
  Inhibition ratio/%: 48%
PKG1α(h)
  Inhibition ratio/%: 12%
PASK(h)
  Inhibition ratio/%: 53%
Ret(V804M)(h)
  Inhibition ratio/%: 45%
PKR(h)
  Inhibition ratio/%: 19%
MRCKγ(h)
  Inhibition ratio/%: 55%
cKit(D816H)(h)
  Inhibition ratio/%: 42%
TrkB(h)
  Inhibition ratio/%: 0%
Wee1(h)
  Inhibition ratio/%: 1%
CDK6/cyclinD3(h)
  Inhibition ratio/%: 80%
CLK1(h)
  Inhibition ratio/%: 80%
BIKe(h)
  Inhibition ratio/%: −2%
ULK2(h)
  Inhibition ratio/%: 55%
A-Raf(h)
  Inhibition ratio/%: 10%
Aurora-C(h)
  Inhibition ratio/%: 15%
LIMK2(h)
  Inhibition ratio/%: 19%
PEK(h)
  Inhibition ratio/%: 36%
CLK2(h)
  Inhibition ratio/%: 77%
PRK2(h)
  Inhibition ratio/%: −4%
PIP5K1a(h)
  Inhibition ratio/%: 16%
Flt4(h)
  Inhibition ratio/%: 34%
IKKß(h); IKKβ(h)
  Inhibition ratio/%: −3%
Pyk2(h)
  Inhibition ratio/%: −5%
PAK1(h)
  Inhibition ratio/%: 18%
EGFR(L861Q)(h)
  Inhibition ratio/%: 75%
Pim-3(h)
  Inhibition ratio/%: 32%
MRCKβ(h)
  Inhibition ratio/%: −4%
Abl(Y253F)(h)
  Inhibition ratio/%: 23%
MAPK2(m)
  Inhibition ratio/%: 33%
[1]
  Inhibition ratio/%: −16%
DYRK2(h)
  Inhibition ratio/%: 2%
PKCζ(h)
  Inhibition ratio/%: −2%
